Patent US20140275280A1 (COYOTE PHARMACEUTICALS, INC., priority 2013, published 2014)

Legend:
[1] = Pharmacological activity of GGA isomers (data of the examples, test not specified); conditions: at low concentrations
[2] = test system: HSP70; experiment: Time course of HSP70 expression by western blot in cortex and hippocampus after oral CNS-102; assay type: in vivo; design: HSP70 expression (western blot), treatment average: scale not given here
Experimental: The time course of protein expression, as measured by western blot for HSP70, was determined in triplicate for hippocampus, and cortex tissue samples taken from each of 5 animals per group at each of four time points (24, 48, 72, and 96 h) after treatment with either PBS or 12 mg/kg CNS-102, administered orally. The average expression for each treatment group is calculated at each time point for each tissue using PROC MIXED in SAS and are tabulated, along with the difference (delta) between treatment averages and a p-value comparing the difference to zero, below.

[3] = test system: HSP70; experiment: Time course of HSP70 expression by ELISA in select tissues after oral CNS-102; assay type: in vivo, Sprague-Dawley rats; conditions: 12 mg/kg p.o
Experimental: CNS-102 at 12 mg/kg or PBS was administered orally to Sprague-Dawley rats and the time course of HSP70 protein expression in tissues, was measured by ELISA. HSP70 protein expression was determined for lung, testicle, spleen, liver, kidney, blood plasma, skin, peripheral blood monocytes, heart, eye, muscle, intestine, and stomach at each of three time points (8 h, 17 h, 24 h).

[4] = test system: mild to moderate IBD; experiment: Treatment of inflammatory bowel disease (IBD) in subjects; assay type: in vivo; conditions: daily administration, 12 weeks
Experimental: (§1) A pharmaceutical composition comprising GGA or a GGA derivative as described herein is prepared. A subject is diagnosed with mild to moderate IBD. […] Subjects are treated for 12 weeks. Subjects keep daily diaries and record the number and nature of bowel movements. The effect of the treatments is assessed by grading clinical symptoms of fecal blood, mucus, and urgency. In addition, sigmoidoscopic assessment and biopsies are performed, and efficacy of treatment assessed, based on grading of sigmoidoscopic and degree of histological inflammation in rectal biopsy specimens. Safety is assessed based on spontaneous side effect reporting.

[5] = test system: mild to moderate IBD following gastrectomy; experiment: Treatment of IBD in gastrectomized patients; assay type: in vivo; conditions: gastrectomized subjects, daily administration, 12 weeks
Experimental: as §1, with “IBD following gastrectomy.” for “IBD.”

[6] = test system: IEC-18 cells; experiment: Protection of intestinal epithelial cells from NH2Cl-induced injury; assay type: cell-based, Rat; conditions: pretreatment
Experimental: Cell viability is assessed, and endogenous HSP70 levels are determined by enzyme-linked immunosorbent assay in IEC-18 cells.

[7] = test system: DSS-induced colitis; experiment: Dextran sulfate sodium (DSS)-induced colitis; assay type: in vivo, BALB/c mice
Experimental: BALB/c mice are given 3% DSS solution orally for 7 days to induce colitis. The disease activity of colitis is assessed clinically every day, and histology in the colon is evaluated at 7 days post-DSS. The levels of myeloperoxidase (MPO) activity, tumor necrosis factor (TNF)-alpha and interferon (IFN)-gamma in the colon tissues are also examined. In addition, expression of HSPs 25, 40, 70 and 90 in the colon tissue is determined by Western blot analysis or ELISA. GGA or a GGA derivative is administered orally to mice when treatment of DSS is initiated.

[8] = test system: 90% hepatectomy; experiment: Acute liver damage after 90% hepatectomy; assay type: in vivo, Male Wister rats
Experimental: Male Wister rats weighing 230-260 g are obtained. After an overnight fast, GGA or a GGA derivative (as an emulsion with 5% gum arabic and 0.004% α-tocophenol) or vehicle (5% gum arabic emulsion with 0.004% α-tocophenol) is intragastrically administrated into rats 4 h prior to the operation. After rats are anesthetized, 90% hepatectomy is performed. Briefly, the left, median, right-upper, and right-lower lobes are removed, leaving the caudate lobes, which represent 10-11% of the original liver mass. Liver specimens and blood samples are collected after laparotomy and exsanguinations under deep anesthesia immediately before (0) and 4,8, 12, and 24 h after the operation. Small pieces of liver tissue are immediately stored in an RNeasy stabilization kit (Qiagen, Hilden, Germany). Sera are immediately separated, and the activities of alanine (ALT) and aspartate (AST) aminotransferases are measured.

[9] = test system: human hepatoma (Bel-7402) cells; experiment: Acetaminophen-induced hepatotoxicity cytotoxicity assay with S9 mixture; assay type: cell-based; conditions: cytotoxic concentration of acetaminophen, vs control conditions
Experimental: In order to test the protective activity of GGA and GGA derivatives from acetaminophen-induced hepatotoxicity, a cytotoxicity assay is employed using human hepatoma (Bel-7402) cells in the presence of S9 mixture. Cell viability and mitochondrial permeability transition (MPT) is assessed in the presence or absence of GGA or GGA derivatives in combination with a cytotoxic concentration of acetaminophen.

[10] = test system: HL-1 cardiomyocytes; experiment: In vitro ischemia/reperfusion cardiac disease model; assay type: cell-based, murine; conditions: HL-1 cells, nutrient-deficiency medium with 2.5 mM hydrogen peroxide
Experimental: Activity is assessed via apoptosis signaling, cell structure and energy-metabolism. The HL-1 cardiomyocytes (murine atrial tumor cell line) are maintained in monolayer culture with Claycomb-medium (Sigma, Germany), Heaving reached confluence and contractile activity, cells are maintained as subcultures. Induction of ischemia was carried out on vital cardiomyocytes at culture day four. The subconfluent, contractile HL-1 cardiomyocytes are placed in nutrient-deficiency medium containing 2.5 mM hydrogen peroxide solution in order to enhance the oxidative stress in HL-1 cells. In control cultures the medium exchange is carried out with standard supplemented Claycomb-medium. 8 h after ischemia induction samples are harvested and revitalization is induced in parallel by replacing nutrient-deficiency medium with fresh Claycomb-medium and incubating cells for another 16 hours. Cell proliferation analysis is done by flow cytometry. Apoptosis analysis is performed by terminal desoxynucleotidyl transferase-mediated dUTP nick end-labeling. Total number of cells are determined using 7-AAD nucleus staining. Additionally formaldehyde-fixed cells on glass coverslips are prepared for immuncytochemical staining.

[11] = test system: myocardial ischemia and reperfusion; experiment: Myocardial ischemia and reperfusion injury; assay type: in vivo, male rats; conditions: once orally 24 h before 30 min ischemia, 4 h of reperfusion
Experimental: Lactate dehydrogenase (LDH), creatine kinase (CK), malondialdehyde (MDA), superoxide dismutase (SOD) activity and infarct size are measured.

[12] = test system: heterotopically transplanted hearts; experiment: Heterotopically transplanted hearts; assay type: in vivo, rats; conditions: 24 h after transplantation
Experimental: A total of 20 donor rats are randomly divided into 2 groups. One of those receives an oral dose of GGA or a GGA derivative and one is a control group. […] The levels of HSP70 expression in donor hearts and the variation of myocardial enzymes in receptor blood or donor hearts are measured 24 h after transplantation. The donated hearts are also examined under a microscope for pathological changes. HSP70 expression is increase in the GGA-treated group.

[13] = single oral administration 4 h prior to operation, vs vehicle

Compound: CC(=O)CC/C=C(\C)CC/C=C(\C)CC/C=C(\C)CCC=C(C)C (single isomer, unassigned) [trans-isomer of GGA, 5E, 9E, 13E geranylgeranyl acetone]
- pharmacological activity and dose-dependent relationship [1]: pharmacologically active and shows a dose-dependent relationship

Compound: CC(=O)CC/C=C(\C)CC/C=C(\C)CC/C=C(\C)CCC=C(C)C [CNS-102]
- HSP70 expression (western blot), treatment average ([2]; cortex, 24 hours after 12 mg/kg oral): −0.016
- HSP70 expression (western blot), treatment average ([2]; cortex, 48 hours after 12 mg/kg oral): −0.45
- HSP70 expression, delta CNS-102 vs PBS ([2]; cortex, 48 hours, 12 mg/kg oral, p-value 0.15): 0.11
- HSP70 expression (western blot), treatment average ([2]; cortex, 72 hours after 12 mg/kg oral): 0.14
- HSP70 expression, delta CNS-102 vs PBS ([2]; cortex, 72 hours, 12 mg/kg oral, p-value 0.13): 0.13
- HSP70 expression (western blot), treatment average ([2]; cortex, 96 hours after 12 mg/kg oral): 0.04
- HSP70 expression, delta CNS-102 vs PBS ([2]; cortex, 96 hours, 12 mg/kg oral, p-value 0.09): 0.19
- levels of HSP70 in the cortex after 24 h ([2]; cortex, time points after 24 h, 12 mg/kg oral): No significant levels
- time of peak HSP70 expression in the hippocampus ([2]; hippocampus, 12 mg/kg oral): > 48 h
- HSP70 expression (western blot), treatment average ([2]; hippocampus, 24 hours after 12 mg/kg oral): −0.159
- HSP70 expression, delta CNS-102 vs PBS ([2]; hippocampus, 24 hours, 12 mg/kg oral, p-value 0.16): −0.088
- HSP70 expression (western blot), treatment average ([2]; hippocampus, 48 hours after 12 mg/kg oral): 0.02
- HSP70 expression, delta CNS-102 vs PBS ([2]; hippocampus, 48 hours, 12 mg/kg oral, p-value 0.14): 0.2
- HSP70 expression (western blot), treatment average ([2]; hippocampus, 72 hours after 12 mg/kg oral): −0.06
- HSP70 expression (western blot), treatment average ([2]; hippocampus, 96 hours after 12 mg/kg oral): −0.32
- HSP70 expression, delta CNS-102 vs PBS ([2]; hippocampus, 96 hours, 12 mg/kg oral, p-value 0.07): 0.17
- HSP70 Fold Induction vs. Vehicle Control ([3]; Intestine, 8 h): 1.63 fold
- HSP70 Fold Induction vs. Vehicle Control ([3]; Intestine, 17 h): 1.26 fold
- HSP70 Fold Induction vs. Vehicle Control ([3]; Intestine, 24 h): 0.64 fold
- HSP70 Fold Induction vs. Vehicle Control ([3]; PBMC, 8 h): 1.67 fold
- HSP70 Fold Induction vs. Vehicle Control ([3]; PBMC, 17 h): 1.05 fold
- HSP70 Fold Induction vs. Vehicle Control ([3]; PBMC, 24 h): 1.09 fold
- HSP70 Fold Induction vs. Vehicle Control ([3]; Stomach, 8 h): 1.07 fold
- HSP70 Fold Induction vs. Vehicle Control ([3]; Stomach, 17 h): 1.30 fold
- HSP70 Fold Induction vs. Vehicle Control ([3]; Stomach, 24 h): 0.96 fold
- HSP70 Fold Induction vs. Vehicle Control ([3]; heart, 17 h): 1.89 fold
- HSP70 Fold Induction vs. Vehicle Control ([3]; heart, 24 h): 0.60 fold
- HSP70 Fold Induction vs. Vehicle Control ([3]; kidney, 8 h): 1.11 fold
- HSP70 Fold Induction vs. Vehicle Control ([3]; kidney, 17 h): 1.08 fold
- HSP70 Fold Induction vs. Vehicle Control ([3]; kidney, 24 h): 0.92 fold
- HSP70 Fold Induction vs. Vehicle Control ([3]; liver, 8 h): 1.24 fold
- HSP70 Fold Induction vs. Vehicle Control ([3]; liver, 17 h): 1.00 fold
- HSP70 Fold Induction vs. Vehicle Control ([3]; liver, 24 h): 0.89 fold
- HSP70 Fold Induction vs. Vehicle Control ([3]; plasma, 8 h): 0.88 fold
- HSP70 Fold Induction vs. Vehicle Control ([3]; plasma, 17 h): 1.09 fold
- HSP70 Fold Induction vs. Vehicle Control ([3]; plasma, 24 h): 1.05 fold
- HSP70 Fold Induction vs. Vehicle Control ([3]; spleen, 8 h): 0.64 fold
- HSP70 Fold Induction vs. Vehicle Control ([3]; spleen, 17 h): 1.09 fold
- HSP70 Fold Induction vs. Vehicle Control ([3]; spleen, 24 h): 1.04 fold
- HSP70 Fold Induction vs. Vehicle Control ([3]; testicle, 8 h): 1.10 fold
- HSP70 Fold Induction vs. Vehicle Control ([3]; testicle, 17 h): 1.03 fold
- HSP70 Fold Induction vs. Vehicle Control ([3]; testicle, 24 h): 0.94 fold

Compound: CC(=O)CC/C=C(\C)CC/C=C(\C)CC/C=C(\C)CCC=C(C)C [GGA, Geranylgeranyl acetone]
- efficacy in inflammatory bowel disease (treating the condition and maintaining remission) [4]: demonstrate efficacy
- efficacy in inflammatory bowel disease (treating the condition and maintaining remission) [5]: demonstrate efficacy
- HSP70 levels (ELISA) [6]: rapidly elevates HSP70 levels
- protection against NH2Cl-induced injury (cell viability) [6]: protects against NH2Cl-induced injury
- expression of HSP70 in the colon ([7]; mice given DSS): enhances
- clinical severity of colitis ([7]; oral, 3% DSS for 7 days): significantly reduces
- level of IFN-gamma in the colon ([7]; oral, 3% DSS for 7 days): suppresses
- level of MPO activity in the colon ([7]; oral, 3% DSS for 7 days): suppresses
- level of TNF-alpha in the colon ([7]; oral, 3% DSS for 7 days): suppresses
- chaperone induction in liver (gene expression and immunoblot): HSP70, HSP27, BIP ([8]; after 90% hepatectomy): induce an endoplasmic reticulum chaperone, BIP
- release of aminotransferases (ALT, AST) [8, 13]: significantly suppresses
- survival [8, 13]: improves survival
- cell viability [9]: increased cell viability
- ischemia induced apoptosis (TUNEL) [10]: reduce ischemia induced apoptosis
- ischemia-induced reduction of cell proliferation [10]: rescue ischemia-induced reduction of cell proliferation
- decrease in SOD levels [11]: significantly inhibits
- increase in MDA levels [11]: significantly inhibits
- infarct size [11]: significantly reduces
- level of CK [11]: significantly reduces
- level of LDH [11]: significantly reduces
- Lactate dehydrogenase concentration in receptor blood ([12]; vs control group): decreased
- atriphosphate concentration ([12]; vs control group): higher
- creatine kinase muscle band concentration in receptor blood ([12]; vs control group): decreased
- malondialdehyde concentration ([12]; vs control group): lower
- HSP70 expression in donor hearts ([12]; oral dose to donor 24 h before transplantation): increase

Compound: CC(=O)CC/C=C(/C)CC/C=C(\C)CC/C=C(\C)CCC=C(C)C (single isomer, unassigned) [cis-isomer of GGA, 5Z, 9E, 13E geranylgeranyl acetone]
- pharmacological activity and dose-dependent relationship [1]: at best of minimal activity
